Patent publication US20240165093A1, “METHODS FOR TREATING FAMILIAL CHYLOMICRONEMIA SYNDROME” (AMRYT PHARMACEUTICALS INC., priority 2021, published 2024)
“And” between values parts separate entries of the source, which are not always exact repeats. Equal values may be shown once.

Key:
[1] = tested on: patients with Familial Chylomicronemia Syndrome (FCS); assay: Clinical study of lomitapide in patients with FCS: fasting lipids, lipoproteins, pancreatitis episodes (26 weeks); format: in vivo
Source text: This clinical study evaluated the safety, tolerability, and efficacy of Lomitapide in patients with Familial Chylomicronemia Syndrome (FCS).
Patients were screened for eligibility between 12 to 6 weeks before the first dose of Lomitapide (screening period). After screening period, all enrolled patients entered a run-in phase of at least 6 weeks during which lipid-lowering therapy, daily dietary supplementation of vitamin E, essential fatty acids and a low-fat diet are instituted and stabilized. At the end of the run-in phase, the patients entered into a 26-week efficacy phase, during which they receive lomitapide in addition to their lipid-lowering therapy. Patients must follow a diet comprising <10% energy from fat per day during all the study.
All patients who meet the eligibility criteria, and after 6-week diet period (run-in) were treated with Lomitapide 5 mg, 10 mg, 15 mg, 20 mg, 30 mg, 40 mg, 50 mg up to 60 mg daily based on lipid profile and tolerability. Patients remain at their maximum dose until the end of 26 weeks.
(§1) Treatment was initiated at 5 mg once daily, and the dose titrated based on acceptable safety/tolerability. After a minimum of 2 weeks at 5 mg once daily the dose was then titrated at a minimum of 4-week intervals to 10 mg, 20 mg, 40 mg, and 60 mg/day (e.g., as shown in the table below) or until an individually determined maximum dose (e.g., in the range of 5-60 mg/day) was reached based on lipid profile, and safety/tolerability. Dose adjustments were also made according to liver transaminase levels. If subjects experienced confirmed alanine aminotransferase (ALT) or aspartate aminotransferase (AST) elevations between 3-5×ULN, or >100 U/L but <200 U/L above the baseline value, the dose of lomitapide was reduced to the previously tolerated dose level, with the possibility to re-escalate dose once transaminase elevations were resolved. Once a maximum dose was established, patients remained on this dose up to Week 26.
(§2) Lipid levels and safety indices, including liver function tests, were evaluated at baseline, before each dose increase, and then every 4 weeks until week 26.
The Primary Endpoint was percent change in tryglycerides (TG) at the maximum tolerated dose compared to baseline after 26 weeks of treatment in combination with other lipid lowering therapy in patients with Familial Chylomicronemia Syndrome (FCS).
(§3) Secondary endpoints include other lipid parameters, hepatic fat and liver stiffness and Chylomicron kinetics of Lomitapide in combination with other lipid lowering agents in term of changes at 26 weeks from baseline. Including: • a) Percent change in TC, non-HDL-C, LDL-C, VLDL, Lp(a), as well as apolipoproteins B and A1. • b) Safety of Lomitapide in patients with FCS assessed by changes in laboratory parameters, electrocardiogram, physical examinations and weight. • c) Record of episodes of pancreatitis • d) Change in hepatic fat liver stiffness measured by MRI and/or Transient Elastography (Fibroscan). • e) Chylomicron kinetics.
To enable collection of data for the primary and other endpoints a fasting lipid and safety panel, including liver function tests, was obtained at baseline, prior to each dose escalation, and every 4 weeks thereafter until Week 26. Blood was drawn at baseline and at each visit following a 12 hour fast. Testing included a standard metabolic panel, a complete blood count, urinalysis. Ten patients underwent a metabolic study to determine postprandial chylomicron metabolism and fatty acid profile. Available samples were separated by centrifugation and immediately stored at −80° C. and were shipped in dry ice at the end of the study for analysis.
Lipid and lipoprotein analyses were conducted on serum samples. Total cholesterol (TC), high density lipoprotein-cholesterol (HDL-C), and TGs were measured enzymatically. Non-HDL-C was calculated by subtracting HDL-C levels from TC levels. ApoA-I, apoB and Lp(a) were measured by immunonephelometry. […]

[2] = tested on: patients with Familial Chylomicronemia Syndrome (FCS); assay: Clinical study in FCS patients: hepatic fat (MRI), liver stiffness, NFS and FIB-4 scores; format: in vivo, human
Source text: as §3
Percentage hepatic fat was determined by magnetic resonance imaging (MRI) at baseline and Week 26. The MRI protocol included a dual-phase sequence and the IDEAL IQ sequence. Post-processing software, provided by the manufacturer, was used to generate fat fraction maps. A radiologist trained in abdominal imaging imaged four 1 cm^2 regions of interest (ROIs) to measure in-phase signal intensities of the liver parenchyma. ROIs were copied from the in-phase images to the opposed-phase to ensure identical size and location. Focal hepatic lesions, major branches of portal or hepatic veins, and artifacts were avoided. The mean of the signal intensity of the liver was calculated as the average value of the four signal intensities of the liver parenchyma both in the in-phase and in the opposed phase. The hepatic fat fraction was then calculated with the following formula: 100×(signal intensityIP−signal intensityOP)/(2×signal intensityIP). Finally, ROIs were also copied in the HFF Axial IDEAL IQ map to ensure identical size and location (this map was not available in one patient). The liver ROIs placed on the IDEAL-IQ fat fraction reconstruction were used to generate estimates of percentage fat.
Noninvasive quantification of liver stiffness (LSM) in kPa (estimated fibrosis score: F0 to F1: 2-7 kPa; F2: 7.5-10 kPa; F3: 10-14 kPa; F4: […]) was measured by ultrasound-based transient elastography using FibroScan® or shear wave elastography. Non-alcoholic fatty liver disease fibrosis score (NFS) and fibrosis-4 (FIB-4) score were calculated according to Angulo et al (2007) (Angulo P, Hui J M, Marchesini G, et al. The NAFLD fibrosis score: a noninvasive system that identifies liver fibrosis in patients with NAFLD. Hepatology 2007; 45(4), which is incorporated by reference herein.
Numeric parameters were expressed as median values and 97.5% confidence intervals, while dichotomous variables were expressed as proportions. Differences in numeric parameters were evaluated by the Exact Wilcoxon-Mann-Whitney Test (R CRAN “coin” package). Differences in proportions were evaluated by the Chi Square test. Percentual reductions of numeric variables at Week 26 were expressed as median values (with 97.5% confidence intervals) of the individual patients' variations from Week 0. Correlation of TG percent reduction with lomitapide dose was calculated by partial Spearman's correlation adjusting for TG baseline absolute values (R CRAN ‘ppcor’ package). All calculations were performed by the R statistical software Version 4.04 under the RStudio Version 1.3.1093 interface.

[3] = tested on: patients with Familial Chylomicronemia Syndrome (FCS); assay: Clinical study in FCS patients: safety and tolerability (adverse events, liver function tests, maximum dose); format: in vivo, human
Experimental: as §1, §2, §3
Adverse events (AEs) were coded using MedDRA, Version 11.0. AEs were judged by the investigators as not related, unlikely, possibly, probably or definitely related to study drug and were reviewed regularly by an independent Data and Safety Monitoring Board.

[4] = 18 subjects, baseline to Week 26

SMILES: O=C(NC1CCN(CCCCC2(C(=O)NCC(F)(F)F)c3ccccc3-c3ccccc32)CC1)c1ccccc1-c1ccc(C(F)(F)F)cc1 [lomitapide, N-(2,2,2-trifluoroethyl)-9-[4-[4-[[[4′(trifluoromethyl) [1,1′-biphenyl]-2-yl]carbonyl]amino]-1-piperidinyl]butyl]-9H-fluorene-9carboxamide]
- episodes of acute pancreatitis or severe abdominal pain during treatment ([1]; 26 weeks, all patients with history of acute pancreatitis): No patient experienced an episode of acute pancreatitis or severe abdominal pain
- range of TG decrease in the six subjects with decreases up to 50% ([1]; Week 26): 18.25-49.71%
- reduction in TG levels from baseline ([1]; Week 26, n=18, p<0.0001): 70.5%
- patients with TG reduction >70% ([1]; Week 26, nine of 18 patients): 50%
- subjects achieving TG levels <750 mg/dL (<8.5 mmol/L) ([1]; Week 26, of 18): Thirteen
- subjects with decreases in TG up to 50% ([1]; Week 26, six of 18 subjects): 33.3%
- patients achieving TG levels <500 mg/dL (<5.6 mmol/L) ([1]; Week 26, ten of 18): 55.6%
- patients with TG reduction >50% ([1]; Week 26, twelve of 18 patients): 66.7%
- mean dose when patients crossed the threshold of <500 mg/dL triglycerides ([1]; daily dose): 27 mg
- mean dose when patients crossed the threshold of <750 mg/dL triglycerides ([1]; daily dose): 24 mg
- mean dose when patients crossed the threshold of <1000 mg/dL triglycerides ([1]; daily dose): 18 mg
- median dose when patients crossed the threshold of <500 mg/dL triglycerides ([1]; daily dose): 20 mg
- median dose when patients crossed the threshold of <750 mg/dL triglycerides ([1]; daily dose): 20 mg
- median dose when patients crossed the threshold of <1000 mg/dL triglycerides ([1]; daily dose): 10 mg
- Lp(a) levels, difference from baseline to Week 26 ([1]; in words): No significant differences
- hsCRP levels, difference from baseline to Week 26 ([1]; in words): No significant differences
- fasting triglyceride levels compared to baseline ([1]; in words, over 26 weeks): significant reduction
- patients achieving triglyceride plasma levels <1000 mg/dL ([1]; n=14 of 18): 77.8%
- hsCRP, median at Week 26 ([1]; n=18, Week 26 (baseline 1.2)): 1.24 mg/L
- Lp(a), median at Week 26 ([1]; n=18, Week 26 (baseline 6)): 5.5 nmol/L
- HDL-C, median at Week 26 ([1]; n=18, Week 26 (baseline 16)): 18 mg/dL
- ApoB, median at Week 26 ([1]; n=18, Week 26 (baseline 81.85)): 39.25 mg/dL
- ApoA-I, median at Week 26 ([1]; n=18, Week 26 (baseline 93.7)): 74.95 mg/dL
- non-HDL-C, median at Week 26 ([1]; n=18, Week 26 (baseline 184)): 90.0 mg/dL
- TC, median at Week 26 ([1]; n=18, Week 26 (baseline 205.5)): 94 mg/dL
- ApoA-I, median of individual changes from baseline % ([1]; n=18, baseline to Week 26): −28.1% and −23.0%
- ApoB, median of individual changes from baseline % ([1]; n=18, baseline to Week 26): −43.8%
- HDL-C, median of individual changes from baseline % ([1]; n=18, baseline to Week 26): 20.7% and +20.7%
- Lp(a), median of individual changes from baseline % ([1]; n=18, baseline to Week 26): +40.5%
- TC, median of individual changes from baseline % ([1]; n=18, baseline to Week 26): −51.7%
- hsCRP, median of individual changes from baseline % ([1]; n=18, baseline to Week 26): 9.8%
- non-HDL-C, median of individual changes from baseline % ([1]; n=18, baseline to Week 26): −50.0%
- TG, median of individual changes from baseline % ([1]; n=18, baseline to Week 26, primary endpoint): −70.5%
- TG, median at Week 26 ([1]; n=18 FCS patients, fasting, lomitapide at maximum tolerated dose plus lipid-lowering therapy, Week 26 (baseline 1803.5)): 305.0 mg/dL
- Hepatic fat content on MRI, median at Week 26 ([2]; 9 subjects, Week 26 (baseline 12.0)): 32.5%
- Hepatic fat content on MRI, individual change from baseline, % ([2]; 9 subjects, baseline to Week 26): +146.4%
- LSM (liver stiffness measurement), median at Week 26 ([2]; 14 subjects, Week 26 (baseline 5.7)): 5.5 kPa
- FIB-4, median at Week 26 ([2]; 18 subjects, Week 26 (baseline 0.76)): 1.03
- NFS, median at Week 26 ([2]; 18 subjects, Week 26 (baseline 0.786)): 0.428
- FIB-4, individual change from baseline, % [2, 4]: +38.44%
- NFS, individual change from baseline, % [2, 4]: −51.69%
- non-invasive liver fibrosis measurements (liver stiffness, FIB-4 and NFS scores), change ([2]; baseline to Week 26, in words): No significant changes
- hepatic fat content at week 26 in 3 patients with an increase ([2]; liver MRI): 30-50%
- patients completing the study (26 weeks) ([3]; 18 enrolled): 100%
- elevations in bilirubin or alkaline phosphatase levels ([3]; 26 weeks): No subject experienced elevations
- tolerability of treatment ([3]; 26 weeks, in words): well tolerated
- permanent discontinuation due to liver transaminase elevations ([3]; increases managed by dose reduction or temporary interruption): No subject discontinued treatment permanently
- median lomitapide maximum dose ([3]; individually determined by lipid profile, safety and tolerability, by Week 26, 18 subjects): 35 mg/day
- severity of adverse events ([3]; mostly gastrointestinal tolerability and liver enzyme elevations): mild to moderate
